Source: US20240018153A1, “BENZENESULFONAMIDE DERIVATIVES AND USES THEREOF” (2692372 ONTARIO, INC., priority 2020, published 2024)

Assays:
Format in all cases: cell-based
EGFR [1] = target: T1, EGFR (Homo sapiens (Human), UniProt P00533); assay: A549 cell lysis and immunoassay, phospho-EGFR (Y1068) inhibition; set-up: key: X: EGFR bound and autophosphoration of EGFR inhibited in cells; conditions: A549 cells
Experimental: (§1) A549 cells (ATCC) were cultured in Dulbecco's Modified Eagle's Medium (DMEM) (Wisent) supplemented with 10% FBS and 1% penicillin/streptomycin. Cells were seeded in 6-well plates at 530,000 cells/well and incubated at 37° C., 5% CO2 for 16 hours. Cells were starved in DMEM containing 1% FBS for 4 hours before they were treated with the indicated concentrations of compound or DMSO alone and incubated at 37° C., 5% CO2 for 24 hours. Prior to cell harvest and lysis, 50 ng/ml human epidermal growth factor (hEGF) (Sigma) was added to the cells and incubated at 37° C., 5% CO2 for 10 minutes. Conditioned media was discarded, and adherent cells were washed with PBS before they were scraped on ice. Cell suspensions were centrifugated at 2,000 RPM for 5 minutes at 4° C. and supernatants were discarded. Cell pellets were resuspended with 1× RIPA buffer (Millipore) and incubated on ice for 15 minutes. Protein lysates were extracted by centrifugating at 20,000 RPM for 20 minutes at 4° C. Proteins were separated and total EGFR protein levels were quantified by Simple Western Immunoassay (ProteinSimple) using the Protein Normalization Assay Module for Jess according to the manufacturer's protocol, using a protein concentration of 0.125 μg/μl and an antibody targeting EGFR (clone #EP38Y, Abcam) diluted to 1:400. Phosphorylated EGFR protein levels were quantified with the same assay using a protein concentration of 1 μg/μl and an antibody targeting pEGFR (Y1068) (Cell Signalling) diluted to 1:25. EGFR and phosphorylated EGFR levels were normalized to the Jess Protein Normalization Reagent loading control and subsequently to the DMSO control.

EGFR [2] = target: T1, EGFR; assay: A549 cell lysis and immunoassay, total EGFR degradation; set-up: key: Y: EGFR bound in cells and EGFR degradation occurred; conditions: A549 cells
Experimental: as §1

BTK = BTK (Homo sapiens (Human), UniProt Q06187); assay: Ramos RA1 cell lysis and immunoassay, phospho-BTK (Y223) inhibition; set-up: key: X: BTK bound and autophosphoration of BTK inhibited in cells; conditions: RAMOS cells, compound concentration 1 μM
Experimental: Ramos RA 1 cells (ATCC) were cultured in RPMI-1640 media (Wisent) supplemented with 10% heat-inactivated FBS and 1% penicillin/streptomycin. Cells were seeded in 6-well plates at 1.71×10^6 cells/well and incubated at 37° C., 5% CO2 for 16 hours. Cells were treated with compound at the indicated concentrations or DMSO alone and incubated at 37° C., 5% CO2 for 24 hours. Cell suspensions were centrifugated at 1,400-1,600 RPM for 5 minutes at room temperature and supernatants were discarded. Cell pellets were resuspended with 1× RIPA buffer (Millipore) and incubated on ice for 15 minutes. Protein lysates were extracted by centrifugating at 20,000 RPM for 20 minutes at 4° C. Proteins were separated and total BTK protein levels were quantified by Simple Western Immunoassay (ProteinSimple) using the 12-230 kDa Jess Separation Module according to the manufacturer's protocol, using a protein concentration of 0.25 μg/μl and antibodies targeting BTK (clone #D3H5, Cell Signalling) and β-Actin (clone #AC-15, Santa Cruz) diluted to 1:400 and 1:10, respectively, where the latter was used as a loading control. An equal ratio of rabbit and mouse HRP-conjugated secondary antibodies was used for detection. BTK protein levels were quantified relative to S-Actin loading levels and subsequently normalized to the DMSO control. Phosphorylated BTK levels were quantified using the Protein Normalization Assay Module for Jess (ProteinSimple) according to the manufacturer's protocol, using a protein concentration of 1.5 μg/μl and an antibody targeting pBTK (Y223) (Cell Signalling) diluted to 1:50. Phosphorylated BTK levels were quantified relative to the Protein Normalization Reagent and subsequently normalized to the DMSO control.

[3] = compound concentration 10, 24 h

T1 sequence (P00533 25-1210): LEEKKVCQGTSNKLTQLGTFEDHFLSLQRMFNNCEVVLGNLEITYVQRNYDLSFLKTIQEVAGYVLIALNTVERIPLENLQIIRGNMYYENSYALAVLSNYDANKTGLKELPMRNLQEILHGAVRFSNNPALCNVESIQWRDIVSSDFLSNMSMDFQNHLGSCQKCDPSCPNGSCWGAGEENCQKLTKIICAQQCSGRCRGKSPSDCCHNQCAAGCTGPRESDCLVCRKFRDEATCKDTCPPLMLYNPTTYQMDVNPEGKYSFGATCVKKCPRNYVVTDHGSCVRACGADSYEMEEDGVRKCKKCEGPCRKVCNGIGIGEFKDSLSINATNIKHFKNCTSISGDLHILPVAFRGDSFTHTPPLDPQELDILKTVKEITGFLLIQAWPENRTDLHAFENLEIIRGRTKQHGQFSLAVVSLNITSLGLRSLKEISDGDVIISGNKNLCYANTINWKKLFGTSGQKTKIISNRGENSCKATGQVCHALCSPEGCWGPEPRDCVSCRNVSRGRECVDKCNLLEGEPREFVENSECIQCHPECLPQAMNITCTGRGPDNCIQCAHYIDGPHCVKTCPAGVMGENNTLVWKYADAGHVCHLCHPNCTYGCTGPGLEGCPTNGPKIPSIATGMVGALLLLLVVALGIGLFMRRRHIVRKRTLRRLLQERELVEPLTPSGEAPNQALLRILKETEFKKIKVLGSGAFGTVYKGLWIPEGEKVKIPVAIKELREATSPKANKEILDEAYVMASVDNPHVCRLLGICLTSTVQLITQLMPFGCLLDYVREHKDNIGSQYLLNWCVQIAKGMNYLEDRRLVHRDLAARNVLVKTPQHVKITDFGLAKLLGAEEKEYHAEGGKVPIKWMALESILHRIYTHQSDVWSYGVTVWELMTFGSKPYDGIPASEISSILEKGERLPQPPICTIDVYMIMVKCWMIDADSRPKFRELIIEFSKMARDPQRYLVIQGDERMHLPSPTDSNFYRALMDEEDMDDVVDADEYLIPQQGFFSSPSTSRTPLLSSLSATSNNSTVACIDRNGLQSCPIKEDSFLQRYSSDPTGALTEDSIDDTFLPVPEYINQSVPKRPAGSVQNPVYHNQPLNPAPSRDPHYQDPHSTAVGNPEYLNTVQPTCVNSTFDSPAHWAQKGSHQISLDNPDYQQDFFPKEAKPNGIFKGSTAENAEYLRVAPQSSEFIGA
Chain of BTK (Q06187 whole entry): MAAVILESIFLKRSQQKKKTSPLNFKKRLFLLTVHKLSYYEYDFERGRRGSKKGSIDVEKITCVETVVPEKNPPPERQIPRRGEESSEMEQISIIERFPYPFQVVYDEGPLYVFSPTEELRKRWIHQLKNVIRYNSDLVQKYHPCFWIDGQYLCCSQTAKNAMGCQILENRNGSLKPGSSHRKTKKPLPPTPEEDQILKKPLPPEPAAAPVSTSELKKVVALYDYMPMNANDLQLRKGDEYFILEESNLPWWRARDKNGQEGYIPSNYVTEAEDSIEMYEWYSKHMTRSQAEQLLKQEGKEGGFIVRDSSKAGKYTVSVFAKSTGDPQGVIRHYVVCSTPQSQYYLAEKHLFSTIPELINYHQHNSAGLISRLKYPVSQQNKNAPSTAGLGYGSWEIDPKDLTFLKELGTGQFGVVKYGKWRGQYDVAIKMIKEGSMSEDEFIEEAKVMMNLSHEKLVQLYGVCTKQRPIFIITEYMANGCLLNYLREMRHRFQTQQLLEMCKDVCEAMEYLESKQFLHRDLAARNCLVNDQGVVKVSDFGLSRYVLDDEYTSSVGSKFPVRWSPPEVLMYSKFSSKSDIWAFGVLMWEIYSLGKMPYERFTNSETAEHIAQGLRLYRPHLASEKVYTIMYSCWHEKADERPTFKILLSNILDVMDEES

| Structure (SMILES) | pEGFR inhibition (A549, 1 μM, 24 h) (EGFR [1]) | pEGFR inhibition (A549, compound concentration, 24 h) (EGFR [1]; compound concentration 10 μM) | EGFR degradation (A549, 1 μM, 24 h) (EGFR [2]) | EGFR degradation (A549, compound concentration, 24 h) (EGFR [2]; [3]) | pBTK inhibition (RAMOS, 24 h) (BTK) | EGFR degradation (A549, compound concentration, 24 h) (EGFR [2]; compound concentration 5, 24 h) | pEGFR inhibition (A549, compound concentration, 24 h) (EGFR [1]; compound concentration 5 μM) |
| --- | --- | --- | --- | --- | --- | --- | --- |
| C[S@+]([O-])c1c(F)c(F)c(F)c(F)c1C(=O)Nc1ncnc2[nH]ccc12 (racemic) [Compound I-46, 2,3,4,5-tetrafluoro-6-(methylsulfinyl)-N-(7H-pyrrolo[2,3-d]pyrimidin-4-yl)benzamide] | X | X | Y | Y | X |  |  |
| CS(=O)(=O)c1c(F)c(F)c(F)c(F)c1CNCCNc1ncnc2[nH]ccc12 [Compound I-50, N^1-(7H-pyrrolo[2,3-d]pyrimidin-4-yl)-N2-(2,3,4,5-tetrafluoro-6-(methylsulfonyl)benzyl) ethane-1,2-diamine] | X | X | Y |  | X |  |  |
| COCCOc1ccc(Nc2ncc(F)c(Nc3cccc(Nc4c(F)c(F)c(F)c(F)c4S(C)(=O)=O)c3)n2)cc1 [Compound I-64, 5-fluoro-N^2-(4-(2-methoxyethoxy)phenyl)-N^4-(3-((2,3,4,5-tetrafluoro-6-(methylsulfonyl)phenyl)amino)phenyl)pyrimidine-2,4-diamine] | X |  | Y | Y | X |  |  |
| COCCOc1ccc(Nc2ncc(F)c(Nc3cccc(Nc4c(F)c(F)c(F)c(F)c4[S@+](C)[O-])c3)n2)cc1 (stereo in doubt) [Compound I-63, 5-fluoro-N^2-(4-(2-methoxyethoxy)phenyl)-N^4-(3-((2,3,4,5-tetrafluoro-6-(methylsulfinyl)phenyl)amino)phenyl)pyrimidine-2,4-diamine] | X | X | Y | Y | X |  |  |
| NS(=O)(=O)c1c(F)c(F)c(F)c(F)c1C(=O)NCCNc1ncnc2[nH]ccc12 [Compound I-48] | X | X | Y | Y |  |  |  |
| COCCOc1ccc(Nc2ncc(F)c(Nc3cccc(NC(=O)c4c(F)c(F)c(F)c(F)c4S(C)(=O)=O)c3)n2)cc1 [Compound I-61, 2,3,4,5-tetrafluoro-N-(3-((5-fluoro-2-((4-(2-methoxyethoxy)phenyl)amino)pyrimidin-4-yl)amino)phenyl)-6-(methylsulfonyl)benzamide] | X |  | Y | Y | X |  |  |
| CN(C)S(=O)(=O)c1c(F)c(F)c(F)c(F)c1C(=O)NCCCn1nc(-c2ccc(Oc3ccccc3)cc2)c2c(N)ncnc21 [Compound I-41, N-(3-(4-amino-3-(4-phenoxyphenyl)-1H-pyrazolo[3,4-d]pyrimidin-1-yl)propyl)-2-(N,N-dimethylsulfamoyl)-3,4,5,6-tetrafluorobenzamide] | X |  | Y |  | X | Y |  |
| Nc1ncnc2c1c(-c1ccc(Oc3ccccc3)cc1)nn2[C@@H]1CCN(S(=O)(=O)c2c(F)c(F)c(F)c(F)c2OCF)C1 [Compound I-24, (R)-3-(4-phenoxyphenyl)-1-(1-((2,3,4,5-tetrafluoro-6-(fluoromethoxy)phenyl)sulfonyl)pyrrolidin-3-yl)-1H-pyrazolo[3,4-d]pyrimidin-4-amine] |  |  |  |  | X |  |  |
| COCCOc1ccc(Nc2ncc(F)c(Nc3cccc(NC(=O)c4c(F)c(F)c(F)c(F)c4S(=O)(=O)N(C)C)c3)n2)cc1 [Compound I-59, 2-(N,N-dimethylsulfamoyl)-3,4,5,6-tetrafluoro-N-(3-((5-fluoro-2-((4-(2-methoxyethoxy)phenyl)amino)pyrimidin-4-yl)amino)phenyl)benzamide] | X | X | Y |  | X | Y |  |
| CN(C)S(=O)(=O)c1c(F)c(F)c(F)c(F)c1C(=O)NCCNc1ncnc2[nH]ccc12 [Compound I-47, N-(2-((7H-pyrrolo[2,3-d]pyrimidin-4-yl)amino)ethyl)-2-(N,N-dimethylsulfamoyl)-3,4,5,6-tetrafluorobenzamide] | X |  | Y | Y |  |  |  |
| CS(=O)(=O)c1c(F)c(F)c(F)c(F)c1C(=O)NCCCn1nc(-c2ccc(Oc3ccccc3)cc2)c2c(N)ncnc21 [Compound I-39, N-(3-(4-amino-3-(4-phenoxyphenyl)-1H-pyrazolo[3,4-d]pyrimidin-1-yl)propyl)-2,3,4,5-tetrafluoro-6-(methylsulfonyl)benzamide] | X |  | Y |  | X | Y | X |
| C[S+]([O-])c1c(F)c(F)c(F)c(F)c1C(=O)N1CCC[C@@H](n2nc(-c3ccc(Oc4ccccc4)cc3)c3c(N)ncnc32)C1 (stereo partly drawn) [Compound I-36, ((R)-3-(4-amino-3-(4-phenoxyphenyl)-1H-pyrazolo[3,4-d]pyrimidin-1-yl)piperidin-1-yl)(2,3,4,5-tetrafluoro-6-(methylsulfinyl)phenyl)methanone] | X | X | Y | Y | X |  |  |
| COCCOc1ccc(Nc2ncc(F)c(Nc3cccc(NC(=O)c4c(F)c(F)c(F)c(F)c4[S@+](C)[O-])c3)n2)cc1 (stereo in doubt) [Compound I-62, 2,3,4,5-tetrafluoro-N-(3-((5-fluoro-2-((4-(2-methoxyethoxy)phenyl)amino)pyrimidin-4-yl)amino)phenyl)-6-(methylsulfinyl)benzamide] | X |  | Y | Y | X |  |  |
| Nc1ncnc2c1c(-c1ccc(Oc3ccccc3)cc1)nn2CCNC(=O)c1c(F)c(F)c(F)c(F)c1S(N)(=O)=O [Compound I-42, N-(2-(4-amino-3-(4-phenoxyphenyl)-1H-pyrazolo[3,4-d]pyrimidin-1-yl)ethyl)-2,3,4,5-tetrafluoro-6-sulfamoylbenzamide] | X | X | Y | Y | X |  |  |
